Reference: DBAASP
Values after ≈ are worked out from the molar mass of the structure shown. Values joined by “and” are separate entries in the source; they are usually repeats but may differ in a detail not shown here. Equal entries are not always repeated.

Assays:
Experiment in all cases: ≥ marks a high value that may be exact or a test limit, other limits are often not marked, values filed in µg/mL are converted to µM
[1] = system: Pseudomonas aeruginosa ATCC 27853
Staphylococcus aureus = system: Staphylococcus aureus
[2] = system: Pseudomonas aeruginosa ATCC 15692
[3] = system: Listeria monocytogenes KCTC 3710
[4] = system: Candida albicans F7-39/IDE99
[5] = system: Pseudomonas aeruginosa 3320
[6] = system: Staphylococcus aureus ATCC 29213
[7] = system: Staphylococcus aureus ATCC 25923
Escherichia coli B = system: Escherichia coli B
Bacillus subtilis 168 = system: Bacillus subtilis 168
[8] = system: Escherichia coli ATCC 25922
[9] = system: Staphylococcus aureus 547582
[10] = system: Staphylococcus aureus USA 300
Escherichia coli LEC001 = system: Escherichia coli LEC001
[11] = system: Pseudomonas aeruginosa PAO1
[12] = system: Staphylococcus aureus ATCC 9144
[13] = system: Klebsiella pneumoniae NCTC 13368
[14] = system: Candida albicans ATCC 90028
[15] = system: Acinetobacter baumannii ATCC 17978
[16] = system: Escherichia coli NCTC 12923
[17] = system: Staphylococcus aureus NCTC 13616
Klebsiella pneumoniae M6 = system: Klebsiella pneumoniae M6
[18] = system: Escherichia coli ATCC 25726
[19] = system: Pseudomonas aeruginosa NCTC 13437
[20] = system: Acinetobacter baumannii AYE
[21] = system: Klebsiella pneumoniae ATCC 700603
[22] = system: Enterococcus faecalis NCTC 12697
[23] = system: Acinetobacter baumannii I NM8
[24] = system: Pseudomonas aeruginosa PAO239
[25] = system: Fusobacterium nucleatum NCTC 10562
[26] = system: Candida albicans NCTC 3179
[27] = system: Stenotrophomonas maltophilia
[28] = system: Streptococcus mutans ATCC 10449
Bacillus cereus = system: Bacillus cereus
Mannheimia haemolytica = system: Mannheimia haemolytica
Enterococcus faecalis = system: Enterococcus faecalis
[29] = system: Batrachochytrium dendrobatidis
Streptococcus uberis = system: Streptococcus uberis
[30] = system: Leuconostoc mesenteroides
Escherichia coli = system: Escherichia coli
Micrococcus luteus = system: Micrococcus luteus
[31] = system: Enterococcus faecalis 981
[32] = system: Candida albicans ATCC 2002
[33] = system: Staphylococcus carnosus KHS
[34] = system: Psychrobacter faecalis X29
[35] = system: Bacillus licheniformis X39
[36] = system: Enterococcus faecium 091299
[37] = system: Rhodococcus rhodochrous X15

CSCC[C@H](NC(=O)CNC(=O)[C@H](Cc1ccccc1)NC(=O)CN)C(=O)N[C@@H](C)C(=O)N[C@@H](CC(C)C)C(=O)N[C@@H](CCCCN)C(=O)N[C@@H](CC(C)C)C(=O)N[C@@H](CC(C)C)C(=O)N[C@@H](CCCCN)C(=O)N[C@@H](CCCCN)C(=O)N[C@H](C(=O)N[C@@H](CC(C)C)C(N)=O)C(C)C [GFGMALKLLKKVL]
MIC [1]: 6.25 µM (≈ 8.86 µg/mL)
MIC (Staphylococcus aureus): 3.7 µM and 4.43 µM
MIC [2]: 6.25 µM (≈ 8.86 µg/mL)
MIC [3]: 25 µM (≈ 35.4 µg/mL)
MIC [4]: 6.3 µM (≈ 8.93 µg/mL)
MIC [5]: 8 µM (≈ 11.3 µg/mL)
MIC [6]: 3.13 µM (≈ 4.43 µg/mL)
MIC [7]: 3.13 µM (≈ 4.43 µg/mL)
MIC (Escherichia coli B): 3 µM (≈ 4.25 µg/mL)
MIC (Bacillus subtilis 168): 1.3 µM (≈ 1.84 µg/mL)
MIC [8]: 6.25 µM (≈ 8.86 µg/mL)
MIC [9]: 8 µM (≈ 11.3 µg/mL)

CSCC[C@H](NC(=O)[C@H](CCSC)NC(=O)[C@H](CCCCN)NC(=O)CNC(=O)[C@@H](NC(=O)[C@@H](NC(=O)[C@H](CCCCN)NC(=O)[C@H](CC(C)C)NC(=O)CNC(=O)[C@H](Cc1ccccc1)NC(=O)[C@H](CCCCN)NC(=O)[C@H](Cc1ccccc1)NC(=O)[C@H](C)NC(=O)[C@H](CCCCN)NC(=O)CNC(=O)[C@H](CC(C)C)NC(=O)[C@H](CC(C)C)NC(=O)[C@H](CO)NC(=O)CNC(=O)[C@H](CC(C)C)NC(=O)CN)[C@@H](C)O)C(C)C)C(=O)NCC(=O)NCC(=O)N[C@@H](C)C(=O)N1CCC[C@H]1C(=O)N[C@@H](CCCN=C(N)N)C(=O)N[C@@H](CCC(=O)O)C(=O)N[C@@H](CCC(N)=O)C(=O)O [GLGSLLGKAFKFGLKTVGKMMGGAPREQ]
MIC [10]: 2.78 µM (≈ 8 µg/mL)
MIC (Escherichia coli LEC001): 2.78 µM (≈ 8 µg/mL)
MIC [11]: > 44.5 µM
MIC [12]: 1.39 µM (≈ 4 µg/mL)
MIC [13]: 11.1 µM (≈ 32 µg/mL)
MIC [14]: 25 µM (≈ 72 µg/mL)
MIC [15]: 1.39 µM (≈ 4 µg/mL)
MIC [16]: 2.78 µM (≈ 8 µg/mL)
MIC [17]: 1.39 µM (≈ 4 µg/mL)
MIC [7]: 6 µM (≈ 17.3 µg/mL)
MIC (Klebsiella pneumoniae M6): 5.56 µM (≈ 16 µg/mL)
MIC [18]: 3 µM (≈ 8.64 µg/mL)
MIC [19]: ≥ 44.5 µM
MIC [20]: 1.39 µM (≈ 4 µg/mL)

CC[C@H](C)[C@H](NC(=O)[C@H](CCCCN)NC(=O)[C@H](CC(C)C)NC(=O)[C@H](C)NC(=O)[C@H](CCCCN)NC(=O)CNC(=O)[C@H](CC(C)C)NC(=O)[C@@H](NC(=O)[C@H](CO)NC(=O)CNC(=O)[C@H](CC(C)C)NC(=O)CN)C(C)C)C(=O)NCC(=O)N[C@@H](C)C(=O)N[C@@H](CC(N)=O)C(=O)N[C@@H](CC(C)C)C(=O)N[C@@H](CC(C)C)C(N)=O [GLGSVLGKALKIGANLL]
MIC [1]: 25 µM (≈ 40.6 µg/mL)
MIC [21]: 25 µM (≈ 40.6 µg/mL)
MIC [22]: ≥ 100 µM
MIC [23]: 6 µM (≈ 9.74 µg/mL)
MIC [7]: 6 µM (≈ 9.74 µg/mL)
MIC [24]: 25 µM (≈ 40.6 µg/mL)
MIC [25]: 6.25 µM (≈ 10.1 µg/mL)
MIC [8]: 12.5 µM (≈ 20.3 µg/mL)
MIC [26]: ≥ 50 µM
MIC [27]: 4 µM (≈ 6.49 µg/mL)
MIC [28]: 3.1 µM (≈ 5.03 µg/mL)

CSCC[C@H](N=C(O)[C@H](CC(C)C)N=C(O)CN)C(O)=N[C@@H](CO)C(O)=N[C@H](C(O)=N[C@@H](CC(C)C)C(O)=NCC(O)=N[C@@H](Cc1cnc[nH]1)C(O)=N[C@@H](C)C(O)=N[C@H](C(O)=NCC(O)=N[C@@H](CC(=N)O)C(O)=N[C@H](C(O)=N[C@@H](CC(C)C)C(O)=NCC(O)=NCC(O)=N[C@@H](CC(C)C)C(O)=N[C@@H](Cc1ccccc1)C(O)=N[C@@H](CCCCN)C(=O)N1CCC[C@H]1C(O)=N[C@@H](CCCCN)C(=O)O)C(C)C)C(C)C)C(C)C [GLMSVLGHAVGNVLGGLFKPKS]
MIC (Bacillus cereus): 5.73 µM (≈ 12 µg/mL)
MIC (Mannheimia haemolytica): 0.367 µM (≈ 0.768 µg/mL)
MIC (Staphylococcus aureus): 45.8 µM (≈ 96 µg/mL)
MIC (Enterococcus faecalis): ≥ 68.8 µM
MIC [29]: ≥ 100 µM
MIC (Streptococcus uberis): 22.9 µM (≈ 48 µg/mL)
MIC [30]: 11.5 µM (≈ 24 µg/mL)
MIC (Escherichia coli): 22.9 µM (≈ 48 µg/mL)
MIC (Micrococcus luteus): 0.688 µM (≈ 1.44 µg/mL)

CC[C@H](C)[C@H](NC(=O)[C@H](CC(C)C)NC(=O)[C@@H]1CCCN1C(=O)[C@H](CC(C)C)NC(=O)[C@@H](N)Cc1ccccc1)C(=O)N[C@@H](C)C(=O)N[C@@H](CO)C(=O)N[C@@H](CC(C)C)C(=O)N[C@@H](C)C(=O)N[C@@H](C)C(=O)N[C@@H](CC(N)=O)C(=O)N[C@@H](Cc1ccccc1)C(=O)N[C@H](C(=O)N1CCC[C@H]1C(=O)N[C@@H](CCCCN)C(=O)N[C@H](C(=O)N[C@@H](Cc1ccccc1)C(=O)N[C@H]1CSSC[C@@H](C(=O)O)NC(=O)[C@H](CCCCN)NC(=O)[C@H](CCCCN)NC(=O)[C@H]([C@@H](C)O)NC(=O)[C@H]([C@@H](C)CC)NC(=O)[C@H](CCCCN)NC1=O)[C@@H](C)CC)C(C)C [FLPLIASLAANFVPKIFCKITKKC]
MIC [31]: 19 µM (≈ 50.6 µg/mL)
MIC [32]: 2.4 µM (≈ 6.39 µg/mL)
MIC [33]: 4.8 µM (≈ 12.8 µg/mL)
MIC [7]: 1.2 µM (≈ 3.2 µg/mL)
MIC [34]: 4.8 µM (≈ 12.8 µg/mL)
MIC [35]: 2.4 µM (≈ 6.39 µg/mL)
MIC [36]: 19 µM (≈ 50.6 µg/mL)
MIC [37]: 1.2 µM (≈ 3.2 µg/mL)
MIC [8]: 150 µM (≈ 400 µg/mL)
